How the values were obtained:
[1] = biological target: T1, human carbonic anhydrase isoenzyme II (hCA II) (Homo sapiens, UniProt P00918); experiment: biochemical; type: binding; settings: hCA II from erythrocytes 10^-7 M/L, dansylamide 2.25x10^-6, pH 7.4, 60 min preincubation, read at 60 min at 37°C, single measurements
T1 construct: human carbonic anhydrase isoenzyme II from erythrocytes (Sigma-Aldrich); purchased Sigma-Aldrich; host or cells: human erythrocytes (natural source)
Protocol: 1. In vitro inhibition of human carbonic anhydrase isoenzyme II (hCA II)
The test compounds of general Formula I in 96 well microplates were diluted with aqua bidest by using an automatic pipettor (CyBiWell®). From the different dilution plates, aliquots of 20 µl were transferred to the 96 well black assay plates with a pipetting station (Tecan Genesis®). In a second step, 148 µl of potassium phosphate buffer (20 mM, pH 7.4) was added, and as a third step, 20 µl of enzyme solution (1 µM human carbonic anhydrase isoenzyme II from erythrocytes (Sigma-Aldrich), dissolved in potassium phosphate buffer) incubated for 60 min at room temperature and the fluorescence signal (Tecan Ultra® fluorescence reader; excitation wavelength: 280 nm; emission wavelength: 465 nm) read at the end of the preincubation period (FLU-1). After the preincubation time, 20 µl of aqueous dansylamide solution (1 mM dansylamide (Sigma-Aldrich), dissolved in hydrochloric acid) were added and the fluorescence signal read every 10 min for a period of 60 min at 37°C. For calculation, the fluorescence data of the time point 60 min (FLU-2) were used. The total volume of assay mixture amounted to 208 µl. […] Data were expressed as % inhibition after calculation by the formula: % inhibition = 100((1-(FLU-2_cpd-FLU-2_blank-FLU-1_cpd+FLU-1_blank)/(FLU-2_control-FLU-2_blank-FLU-1_control-FLU-1_blank)) [formula] […]

[2] = Acute in vivo food intake test in mice; settings: 24h food intake, male or female C57BI/6 mice, high caloric diet, oral gavage 100 mg/kg/day in two half doses
Protocol: 2. Acute in vivo food intake test in mice
The studies were carried out in male or female C57BI/6 mice (n=8-12 per group). The mice were kept on an inverted 12/12h light/dark cycle (lights on 22:00). They were allowed food (high caloric diet) and water ad libitum. Food intake and water consumption was measured daily. The test compound of general Formula I was suspended in 1% methylcellulose in water and 2% (v/v) of Poloxamer 188 (Lutrol F68®) and administered by oral gavage at a dose of 100 mg/kg/day. One half of the dose was administered at 7.00-9.00 h; the remaining half of the dose was administered between 15.00-15.30 h.
In the test model described above, the test substances caused a decrease of the animals' 24h food intake to the percentages of food intake when compared to control as given in Table 2 below. Table 2: Influence of test substances on food intake

In the case of `NS(=O)(=O)N1CCC2(CC1)CC(=O)c1cc(Br)ccc1O2` [Example 2], the IC50 [1] is reported as 6.6 µM.
With `NS(=O)(=O)N1CCC2(CC1)CC(=O)c1ccccc1O2` [Example 1] the food intake [2] was 83 % of control.

Source: patent publication EP1951725B1, “N-SULFAMOYL-N -BENZOPYRANPIPERIDINES AS INHBITORS OF CARBONIC ANHYDRASES” (Abbott Products GmbH, priority 2005, dated 2007)
